Test results as given in US20060263895A1, “Method for monitoring the stereoselectivity and relative rate of organic chemical reactions” (priority 2005, published 2006).

Key:
[1] = Double cuvette-ISES (in situ enzymatic screening) of Co(III)-salen mediated HKR of (±)-propylene oxide; details: for % ee of the 1,2-propanediol product, as predicted by double-cuvette ISES (upper number): bilayer of pH 8.6 buffer over 7.2 M epoxide in CHCl3, 0.25 mol % catalyst, 15-35 min, + = (S), − = (R); for ISES rate in the HLADH cuvette: over 35 min
Protocol: Aqueous reporting layers. containing TBADH/NADP+ (cuvette 1) and HLADH/NAD+ (cuvette 2), respectively, are then added. The increase in absorbance at 340 nm can be followed for several such sets in parallel by UV-vis spectrophotometry. The kinetic data are then used to make the double-cuvette ISES predictions.
A general procedure for double cuvette-ISES to estimate both enantioselectivities and relative rates for an array of catalysts being screened in parallel is presented below. The hydrolytic kinetic resolution (HKR) of (±) propylene oxide was chosen as model reaction.
Typically, quartz cuvettes with one cm light paths and with nominal one mL volumes were used. For each catalyst, a two cuvette screen was performed, with cuvette A containing HLADH, as (S)-propanediol-selective reporting enzyme, and cuvette B containing TBADH, as a (R)-propanediol-selective reporting enzyme. For each cuvette, the final volume was 800 μL (300 μL of organic layer; 500 μL of aqueous layer).
Both cuvettes A and B had the following composition: 150 μL (2.15 mmol) of (±)-propylene oxide (7.2 M in organic layer), 150 μL of CHCl3 and 0.25 mol % Co(III)-salen catalyst. The total organic layer volume was maintained as 300 μL in all catalyst screens.
(i) Cuvette A: 0.35 U HLADH (17.6 μL from a stock solution (0.02U/μL)), 7.2 mM β-NAD+(16.5 μL from a 220 mM stock) and 465.8 μL of 50 mM sodium pyrophosphate buffer, pH 8.8. The final pH was 8.6.
(ii) Cuvette B: 0.35 U TBADH (15.8 μL from a stock solution (0.022U/μL)) of, 2.2 mM β-NADP+ (5 μL from a 220 mM stock) and 479.5 μL of 50 mM sodium pyrophosphate buffer, pH 8.8. The final pH was 8.6. The total volume of the aqueous layer was maintained as 500 μL in both cuvettes in all ISES experiments.
C. Step by Step Protocol: A catalyst stock solution (22 μmol of catalyst in 620 μL CHCl3) was made up in a 1.5 ml microcentrifuge tube, and stored on ice, along with a stock of (±)-propylene oxide, in a separate tube. The organic layers were prepared by briefly vortexing 150 μL (5.4 μmol, 0.25 mol %) of the catalyst stock in CHCl3 with 150 μL (2.15 mmol) of (±)-propylene oxide in iced microcentrifuge tubes. These were loaded into 1 mL quartz cuvettes using precooled (refrigerator), disposable 1 mL syringes. The aqueous layers were then layered on top of the organic layers, by syringe, down the walls of the cuvette.

[2] = [total 1,2-propanediol] in aqueous ISES layer by 1H NMR; details: for [diol] (mM) @ 15 min: aqueous ISES layer, 1H NMR, t = 15 min; for Norm.: normalized to the catalyst derived from salen 3b (rate 1.0)
Protocol: The concentration of 1,2-propanediol in the aqueous layer was estimated under typical ISES conditions using 1H NMR spectroscopy. The bilayer was prepared as usual for double cuvette-ISES (Section V), but for the substitution of D2O for H2O in the buffer, and the elimination of the dehydrogenase enzymes. After 15 min, the aqueous layer (300 μL of 500 μL total) was withdrawn and mixed with a fresh solution of imidazole of known concentration (also 300 μL in D2O), as an internal concentration standard. Accumulation of the 1H NMR spectrum, followed by integration and quantitation, provided an experimental measure of [total diol] in the aqueous reporting layer at t=15 minutes for the catalyst under investigation. The observed diol concentrations for ten catalysts examined in this way are collected in Table S6, below. These have been normalized to the value for the catalyst derived from salen 3b (arbitrarily assigned a rate of 1.0).

[3] = HKR of (±)-propylene oxide under standard neat 'Jacobsen conditions' (NMR conversion, chiral HPLC ee); details: for NMR conv. (time) / % ee (HPLC): loading 0.25 mol %; for % ee of the 1,2-propanediol product, as observed by chiral HPLC (lower number): neat propylene oxide, 0.55 equiv. H2O, 0.25 mol % catalyst, 3 h reaction time
Protocol: Salens in the fully synthetic, 42 member focused library that led to catalysts with appreciable activity, as indicated by double cuvette-ISES, were also evaluated ‘outside of the cuvette,’ under conditions more typically employed in HKR reactions. Specifically, these Co(III)-salen catalysts were evaluated in the HKR of (±)-propylene oxide, under neat conditions, similar to those described by Jacobsen and coworkers. Reactions were arbitrarily stopped after 3 hours, to obtain the enantiopurity of the 1,2-propanediol product at relatively early reaction times, for comparison with ISES predictions.
A typical procedure follows: To the Co(III)-salen catalyst derived from 7e (5.4 mg, 5.4 μmol, 0.25 mol %) and (±)-propylene oxide (125 mg, 2.15 mmol) at 0° C., was added water (21 μL, 1.18 mmol, 0.55 equiv.). The reaction mixture was securely capped, and allowed to warm to room temperature and stirred, most commonly for a total of 3 hours. Percent conversion at 3 hours was evaluated by 1H NMR of an aliquot (cooled to 0° C. for the transfer), in CDCl3. In most of these cases, the conversion was low enough after 3 hours, that the unreacted epoxide (bp 32° C.) was of relatively low ee, and was therefore removed by evaporation under aspirator vacuum. When the conversion was less than 5% by NMR after 3 hours, reactions were continued for longer times.
Upon termination of the reaction, the diol product was isolated by Kugelrohr distillation (˜120° C.-oven temp; 0.1 torr). To determine ee, the isolated diol was derivatized using p-bromobenzoyl imidazole (2.2 equiv.) in THF in the presence of NaH (4 equiv.) at room temperature for 5 min. The bis(p-bromobenzoate) esters obtained following sequential washes with 1 N HCl and saturated sodium bicarbonate, were of sufficient purity to be used directly for chiral HPLC analysis (Chiralcel OD, 99% […]). [drawing 23] [drawing 24] [drawing 25] [drawing 26] [drawing 27]

[4] = reaction stopped at the time given (mostly 3 h), + = (S), − = (R)

Compound	% ee of the 1,2-propanediol product, as predicted by double-cuvette ISES (upper number) [1]	NMR conv. (time) ([3]; 3 h)	% ee (HPLC) [3, 4]	% ee of the 1,2-propanediol product, as observed by chiral HPLC (lower number) ([3]; + = (S), − = (R))	further results
CC(C)(C)c1cccc(C=NC[C@@H](N=Cc2cccc(C(C)(C)C)c2O)c2ccccc2)c1O [Salen 2b, N,N′-Bis(3′-tert-butylsalicylidene)-(1S)-phenyl-1,2-ethylenediamine]	−73 % ee	26 (3 h) %	−75 (R) % ee	−75 % ee	[diol] (mM) @ 15 min [2]: 22 mM; Norm. [2]: 0.23
CC(C)(C)c1cccc(C=NC[C@H](Cc2ccccc2)N=Cc2cccc(C(C)(C)C)c2O)c1O [Salen 3b, N,N′-Bis(3′-tert-butylsalicylidene)-(1S)-benzyl-1,2-ethylenediamine]	+70 % ee	–	+57 (S) % ee	+57 % ee	[diol] (mM) @ 15 min [2]: 96 mM; Norm. [2]: 1.0
Oc1c(C=NC[C@H](Cc2ccccc2)N=Cc2ccc3ccccc3c2O)ccc2ccccc12 [Salen 3d, N,N′-Bis(1′-hydroxy-2′-naphthylidene)-(1S)-benzyl-1,2-ethylenediamine]	−54 % ee	10 (3 h) %	−30 (R) % ee	−30 % ee	–
CC1(C)CCN2CCC(C)(C)c3c(O)c(C=NC[C@@H](N=Cc4cc5c6c(c4O)C(C)(C)CCN6CCC5(C)C)c4ccccc4)cc1c32 [Salen 2g, N,N′-Bis(8′-hydroxy-1′,1′,7′,7′-tetramethyljulolidinyl-9′-methylidene)-(1S)-phenyl-1,2-ethylenediamine]	−41 % ee	–	–	−71 % ee	ISES rate in the HLADH cuvette [1]: 14.9 mAbs min−1; % ee (HPLC) ([3]; @3 h): −71@3 h, % ee; % ee (HPLC) ([3]; @20 h): −65@20 h (R) % ee
N,N′-Bis(3′-tert-butylsalicylidene)-[1R-(1α,2α,5α)]-2-amino-7,7-dimethyl-2-bicyclo[3.3.1]heptaneethanamine [Salen 1b]	+68 % ee	–	+75 (S) % ee	+75 % ee	–
Oc1c(I)cc(I)cc1C=NC[C@@H](N=Cc1cc(I)cc(I)c1O)c1ccccc1 [Salen 2e, N,N′-Bis(3′,5′-diiodosalicylidene)-(1S)-phenyl-1,2-ethylenediamine]	+4 % ee	26 (3 h) %	−41 (R) % ee	−41 % ee	–
CC(C)(C)c1cc(C=NC[C@H](Cc2ccccc2)N=Cc2cc(C(C)(C)C)cc(C(C)(C)C)c2O)c(O)c(C(C)(C)C)c1 [Salen 3a, N,N′-Bis(3′,5′-di-tert-butylsalicylidene)-(1S)-benzyl-1,2-ethylenediamine]	+48 % ee	46 (3 h) %	+55 (S) % ee	+55 % ee	–
Oc1c(C=NC[C@@H](N=Cc2ccc3ccccc3c2O)c2ccccc2)ccc2ccccc12 [Salen 2d, N,N′-Bis(1′-hydroxy-2′-naphthylidene)-(1S)-phenyl-1,2-ethylenediamine]	−15 % ee	–	−54 (R) % ee	−54 % ee	NMR conv. (time) ([3]; 22 h): 19 (22 h) %
Oc1c(I)cc(I)cc1C=NC[C@H](Cc1cccc2ccccc12)N=Cc1cc(I)cc(I)c1O [Salen 4e, N,N′-Bis(3′,5′-diiodosalicylidene)-(1S)-(α-naphthylmethyl)-1,2-ethylenediamine]	+43 % ee	–	+14 (S) % ee	+14 % ee	ISES rate in the HLADH cuvette [1]: 18.1 mAbs min−1; NMR conv. (time) ([3]; 24 h): 6 (24 h) %
CO[C@H]1[C@@H]2OC(C)(C)O[C@@H]2COC1(CN=Cc1cc(C(C)(C)C)cc(C(C)(C)C)c1O)N=Cc1cc(C(C)(C)C)cc(C(C)(C)C)c1O (stereo partly drawn) [Salen 6a, N,N′-Bis(3′,5′-di-tert-butylsalicylidene)-3-O-methyl-4,5-O-isopropylidene-1,2-dideoxy-Dfructopyranosyl-1,2-diamine]	–	–	–	–	% ee of the 1,2-propanediol product, as predicted by double-cuvette ISES (upper number) ([1]; listed as 6a*): +77 % ee; NMR conv. (time) ([3]; 3 h, listed as 6a*): 12 (3 h) %; % ee (HPLC) ([3]; reaction stopped at the time printed in the row (mostly 3 h), + = (S), − = (R), listed as 6a*): +69 (S) % ee; % ee of the 1,2-propanediol product, as observed by chiral HPLC (lower number) ([3]; + = (S), − = (R), listed as 6a*): +69 % ee
Oc1c(I)cc(I)cc1C=NC[C@H](Cc1ccc2ccccc2c1)N=Cc1cc(I)cc(I)c1O [Salen 5e, N,N′-Bis(3′,5′-diiodosalicylidene)-(1S)-(β-naphthylmethyl)-1,2-ethylenediamine]	+35 % ee	3 (3 h) %	−5 (R) % ee	−5 % ee	–
